# Reference: publication PMC9106635, “Stimulation of the atypical chemokine receptor 3 (ACKR3) by a small-molecule agonist attenuates fibrosis in a preclinical liver but not lung injury model” (Cellular and Molecular Life Sciences: CMLS, 2022)
# Columns and labels:
# [1] = system: mouse CXCL12 plasma levels; test: Mouse CXCL12 plasma determination (Bio-Plex); format: in vivo; details: liver fibrosis model, day 28, 45 mg/kg/dose PO QD
# Procedure: CXCL12 plasma levels were determined using Bio-Plex Pro Mouse Chemokine SDF-1a/CXCL12 (Bio-Rad) according to the manufacturer’s protocol. Prior to the assay mouse plasma samples were centrifuged for 15 min at 1000×g at 4 °C to remove any particulates. A four-fold dilution series of mouse CXCL12, blank samples and 1:5 diluted plasma samples were prepared. A 1:1 mixture of magnetic beads (50 µL/well) and sample (50 µL/well) was added to the 96-well assay plate, which was then sealed and incubated (30 min at RT) on a plate shaker at 850 rpm protected from light. After washing three times with wash buffer 25 µL/well detection antibody was added and the plate was again incubated as described above. The plate was again washed three times (100 µL/well wash buffer) followed by the addition of streptavidin-PE (50 µL/well). The plate was sealed and incubated (10 min at RT) at 850 rpm protected from light. Finally, the plate was again washed three times and the magnetic beads were resuspended in fresh assay buffer (152 µL/well). The plate was sealed and shaken for an additional 30 s before being analyzed with the Bioplex 200 System. Data were analyzed with the Bio-Plex Manager Software.
# [2] = system: CCl4-induced liver fibrosis in C57BL/6J mice; test: CCl4-induced liver fibrosis model; format: in vivo, mouse; details: 45 mg/kg/dose PO QD, day 28, vs CCl4 + captisol; P < 0.0001 and P = 0.004
# Procedure: A preclinical mouse model for CCl4-induced liver fibrosis was performed at the Department of Metabolic Health Research, The Netherlands Organisation for Applied Scientific Research (TNO) (Leiden, The Netherlands). Fifty-two male C57BL/6J mice were matched on body weight prior to the study and divided into five groups (experimental study design, Supplementary Figure S1a). Starting at day 0, 10–12-week-old mice were intraperitoneally (i.p.) injected (three times a week) with mineral oil (group 1) or CCl4 (15% v/v in mineral oil, group 2–5) for a total of 28 days. At day 0, mice received subcutaneous treatment with compound 18a (15 mg/kg/dose, twice daily (BID), group 3), or corresponding vehicle control (23% HPBCD, twice daily (BID), groups 1 and 2)], or received daily gavage with either an ALK5/ALK4 kinase inhibitor [SM 16 (45 mg/kg/dose, PO, QD, group 5) or its corresponding vehicle control (β-cyclodextrin sulfobutyl ether sodium salt or captisol, PO, QD, group 4)]. Plasma samples were collected by a tail vein bleed at day 7. At day 28, mice were sacrificed using CO2 and additional plasma samples and liver lobes were collected. As a primary endpoint collagen surface area was determined on cross-sections of the lateral left lobe by picro sirius red (PSR) staining. As a secondary endpoint collagen content (hydroxyproline) of the left median lobe was analyzed using a chromogenic assay according to the manufacturer’s instructions (QuickZyme Biosciences, Leiden, The Netherlands).
structure (smiles),measurement,setting,value
"Cc1cccc(-c2[nH]c(C34CCC(C(N)=O)(CC3)CC4)nc2-c2ccc3c(c2)OCO3)n1 [SM 16, reference compound]",plasma CXCL12 levels,[1],no further increase of plasma CXCL12 was observed
same,liver fibrosis: PSR-positive area and hydroxyproline content,[2],significantly attenuated liver fibrosis
